MIC data for 5 compounds are collected here from ChEMBL document CHEMBL1255297, “Genomewide screening for genes associated with gliotoxin resistance and sensitivity in Saccharomyces cerevisiae” (2008).

Common to all, as to format: functional
The test system of experiment [1] is Saccharomyces cerevisiae. Briefly: Antimicrobial activity against wild type Saccharomyces cerevisiae BY4741 by broth microdilution method.
Experiment [2] relates to Saccharomyces cerevisiae. Briefly: Antimicrobial activity against Saccharomyces cerevisiae containing disruption in SNF1 gene by broth microdilution method.
Experiment [3] has as its system Saccharomyces cerevisiae. Briefly: Antimicrobial activity against Saccharomyces cerevisiae containing disruption in IFA38 gene by broth microdilution method.
The test system of experiment [4] is Saccharomyces cerevisiae. Briefly: Antimicrobial activity against Saccharomyces cerevisiae containing disruption in […] gene by broth microdilution method. (In general: In broth dilution the organism is exposed to a series of concentrations in liquid medium.)
For experiment [5], the system named is Saccharomyces cerevisiae. Briefly: Antimicrobial activity against Saccharomyces cerevisiae containing disruption in RTG2 gene by broth microdilution method.
In experiment [6] the test system is Saccharomyces cerevisiae. Briefly: Antimicrobial activity against Saccharomyces cerevisiae containing disruption in APL2 gene by broth microdilution method.
Experiment [7] has as its system Saccharomyces cerevisiae. Briefly: Antimicrobial activity against Saccharomyces cerevisiae containing disruption in RAD18 gene by broth microdilution method.
In experiment [8] the test system is Saccharomyces cerevisiae. Briefly: Antimicrobial activity against Saccharomyces cerevisiae containing disruption in YGL235W gene by broth microdilution method.
The test system of experiment [9] is Saccharomyces cerevisiae. Briefly: Antimicrobial activity against Saccharomyces cerevisiae containing disruption in YOR345C gene by broth microdilution method.
The subject of experiment [10] is Saccharomyces cerevisiae. Briefly: Antimicrobial activity against Saccharomyces cerevisiae containing disruption in YLR456W gene by broth microdilution method.
Experiment [11] deals with Saccharomyces cerevisiae. Briefly: Antimicrobial activity against Saccharomyces cerevisiae containing disruption in YGL072C gene by broth microdilution method.
Experiment [12] has as its system Saccharomyces cerevisiae. Briefly: Antimicrobial activity against Saccharomyces cerevisiae containing disruption in CYS3 gene by broth microdilution method.
Experiment [13] deals with Saccharomyces cerevisiae. Briefly: Antimicrobial activity against Saccharomyces cerevisiae containing disruption in MEF2 gene by broth microdilution method.
In experiment [14] the test system is Saccharomyces cerevisiae. Briefly: Antimicrobial activity against Saccharomyces cerevisiae containing disruption in YKL037W gene by broth microdilution method.

What is called MIC is the lowest concentration that inhibits growth of the organism. A lower MIC goes with a more susceptible organism.

Values after ≈ are worked out from the molar mass of the structure shown.

Take `OC(Cn1cncn1)(Cn1cncn1)c1ccc(F)cc1F` [FLUCONAZOLE]: the MIC in experiment [1] amounted to 32 µg/mL (≈ 104 µM); in experiment [2], 16 µg/mL (≈ 52.2 µM); in experiment [3] it was 16 µg/mL (≈ 52.2 µM); in experiment [4] it was 16 µg/mL (≈ 52.2 µM); in experiment [5], 16 µg/mL (≈ 52.2 µM); in experiment [6], 16 µg/mL (≈ 52.2 µM). Further, the MIC in experiment [7] is 16 µg/mL (≈ 52.2 µM); in experiment [8] it was 16 µg/mL (≈ 52.2 µM); in experiment [9], 16 µg/mL (≈ 52.2 µM); in experiment [10], 16 µg/mL (≈ 52.2 µM); in experiment [11] it was 16 µg/mL (≈ 52.2 µM); in experiment [12] it was 32 µg/mL (≈ 104 µM). In addition, the MIC in experiment [13] and in experiment [14] was 32 µg/mL (≈ 104 µM) in each case.

Regarding `C[C@@H]1[C@H](O)[C@@H](C)/C=C/C=C/C=C/C=C/C=C/C=C/C=C/[C@H](O[C@@H]2O[C@H](C)[C@@H](O)[C@H](N)[C@@H]2O)C[C@@H]2O[C@](O)(C[C@@H](O)C[C@@H](O)[C@H](O)CC[C@@H](O)C[C@@H](O)CC(=O)O[C@H]1C)C[C@H](O)[C@H]2C(=O)O` [AMPHOTERICIN B], the MIC in experiment [1] turned out to be 0.125 µg/mL (≈ 0.135 µM); in [2], 0.5 µg/mL (≈ 0.541 µM); in experiment [3], 0.5 µg/mL (≈ 0.541 µM); in experiment [4] it was 0.5 µg/mL (≈ 0.541 µM); in experiment [5], 0.5 µg/mL (≈ 0.541 µM); in experiment [6] it was 0.5 µg/mL (≈ 0.541 µM). The MIC was 0.5 µg/mL (≈ 0.541 µM) in [7]; 0.5 µg/mL (≈ 0.541 µM) in [8]; 0.5 µg/mL (≈ 0.541 µM) in experiment [9]; 0.5 µg/mL (≈ 0.541 µM) in experiment [10]; 0.5 µg/mL (≈ 0.541 µM) in [11]; 0.25 µg/mL (≈ 0.271 µM) in experiment [12]. The MIC in [13] and in [14] was 0.25 µg/mL (≈ 0.271 µM) in each case.

`CN1C(=O)[C@]23CC4=CC=C[C@H](O)[C@H]4N2C(=O)[C@@]1(CO)SS3` [GLIOTOXIN]: the MIC in experiment [1] worked out at 0.5 µg/mL (≈ 1.53 µM); in [2], 8 µg/mL (≈ 24.5 µM); in [3], 2 µg/mL (≈ 6.13 µM); in [4] it was 2 µg/mL (≈ 6.13 µM); in experiment [5], 8 µg/mL (≈ 24.5 µM); in experiment [6], 8 µg/mL (≈ 24.5 µM). Besides, the MIC came to 8 µg/mL (≈ 24.5 µM) in experiment [7]; 8 µg/mL (≈ 24.5 µM) in experiment [8]; 16 µg/mL (≈ 49 µM) in experiment [9]; 8 µg/mL (≈ 24.5 µM) in experiment [10]; 16 µg/mL (≈ 49 µM) in experiment [11]; 0.06 µg/mL (≈ 0.184 µM) in experiment [12]. Also, the values for the MIC in experiment [13] and in [14] were 0.06 µg/mL (≈ 0.184 µM) and 0.125 µg/mL (≈ 0.383 µM), respectively.

Take `C[C@@H]1C[C@@H]([C@H](O)CC2CC(=O)NC(=O)C2)C(=O)[C@@H](C)C1` [CYCLOHEXIMIDE]: the minimal inhibitory concentration (MIC) in [1], in [2], in [3], in experiment [4], in [5] and in [6] was 0.025 µg/mL (≈ 0.0889 µM) each time. Also, the MIC in experiment [7], in experiment [8], in experiment [9], in [10], in [11] and in experiment [12] was 0.025 µg/mL (≈ 0.0889 µM) in each case. Further, the MIC in experiment [13] and in experiment [14] was 0.025 µg/mL (≈ 0.0889 µM) each time.

Take `CC[C@H](C)C[C@H](C)CCCCCCCCC(=O)N[C@H]1C[C@@H](O)[C@@H](NCCN)NC(=O)[C@@H]2[C@@H](O)CCN2C(=O)[C@H]([C@H](O)CCN)NC(=O)[C@H]([C@H](O)[C@@H](O)c2ccc(O)cc2)NC(=O)[C@@H]2C[C@@H](O)CN2C(=O)[C@H]([C@@H](C)O)NC1=O` [CASPOFUNGIN]: the MIC in [1], in experiment [2], in experiment [3], in [4], in [5] and in experiment [6] was 0.007 µg/mL (≈ 0.0064 µM) throughout. In addition, the MIC in experiment [7] turned out to be 0.007 µg/mL (≈ 0.0064 µM); in [8], 0.007 µg/mL (≈ 0.0064 µM); in [9], 0.007 µg/mL (≈ 0.0064 µM); in experiment [10], 0.007 µg/mL (≈ 0.0064 µM); in experiment [11], 0.007 µg/mL (≈ 0.0064 µM); in experiment [12], 0.028 µg/mL (≈ 0.0256 µM). In addition, the MIC in [13] and in experiment [14] was 0.028 µg/mL (≈ 0.0256 µM) throughout.
